Read-outs that look alike come from different tables or passages of the source.
Assays:
Type in all cases: biochemical
[1] = biological target: T1, total cholinesterase (ChE) (Rattus norvegicus, UniProt P37136); test: Total cholinesterase inhibition in rat brain homogenates (Ellman)
T1 sequence (P37136 32-614): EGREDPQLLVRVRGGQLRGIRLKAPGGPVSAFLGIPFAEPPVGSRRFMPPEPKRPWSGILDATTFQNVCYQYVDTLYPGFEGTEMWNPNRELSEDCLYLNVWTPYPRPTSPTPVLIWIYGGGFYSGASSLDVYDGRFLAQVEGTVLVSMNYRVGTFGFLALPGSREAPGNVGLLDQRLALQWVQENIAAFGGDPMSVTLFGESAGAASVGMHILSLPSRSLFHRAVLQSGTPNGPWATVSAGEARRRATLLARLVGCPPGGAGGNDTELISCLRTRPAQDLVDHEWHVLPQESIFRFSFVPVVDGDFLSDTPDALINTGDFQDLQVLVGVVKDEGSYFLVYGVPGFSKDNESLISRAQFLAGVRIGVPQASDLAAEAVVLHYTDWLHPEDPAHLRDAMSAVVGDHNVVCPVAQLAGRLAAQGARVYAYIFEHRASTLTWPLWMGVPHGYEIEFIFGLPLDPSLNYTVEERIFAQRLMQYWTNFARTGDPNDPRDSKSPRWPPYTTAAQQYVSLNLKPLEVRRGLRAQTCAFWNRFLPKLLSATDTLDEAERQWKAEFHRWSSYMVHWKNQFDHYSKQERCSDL
Experimental: Cholinesterase activity was determined in rat brain homogenate following incubation with varying concentrations of the multifunctional pro-chelators of the invention (also referred to herein as “carbamates”).
Ellman's colorimetric method was adapted for determination of total cholinesterase (ChE) and butyrylcholinesterase (BuChE) activities in rat brain homogenates. Brain tissue from adult Wistar rats was homogenized at 2% w/v (or 10% w/v, for BuChE) in 0.1 M sodium phosphate buffer, pH 7.4, with added NaCl 58.5 g/l and Triton X-100 0.05% v/v. Aliquots of homogenate (20 μl) were incubated with the test compounds for designed time intervals in phosphate buffer pH 7.4, before addition of 5,5′-dithiobis(2-nitrobenzoic) acid and either 1 mM acetylthiocholine iodide or 10 mM butyrylthiocholine iodide (Sigma, St. Louis, Mo.). The reaction was run at 37° C. in a final volume of […] in 96-well microplates and was followed at 412 nm for 5 min with a plate reader. In every experiment, cholinesterase-independent (nonspecific) substrate hydrolysis was determined by including one experimental group treated with tacrine 30 μM. Appropriate tissue and reagent blanks were also included. Reaction velocities were determined in three or four replicates per condition; these were averaged and expressed as percent activity relative to control (solvent), after subtracting the rate of nonspecific hydrolysis.
The results are the mean SEM, n=3 in triplicates. ND—not determined.

[2] = biological target: T2, rat brain cholinesterase (total ChE) (Rattus norvegicus, UniProt P37136); test: Kinetics of irreversible cholinesterase inhibition (Kitz-Wilson); conditions: for kinact: pH 7.4, read-out: k+2 (carbamylation rate constant); for kinact/KI: pH 7.4, read-out: ki (second-order rate inhibition constant, approximated by k+2/Ki)
T2 construct: rows headed: Ki (dissociation constant for EI); other: rat brain total ChE; mean of 3-4 experiments; k+2 (carbamylation rate constant); other: from ki; rate of carba
T2 sequence (P37136 32-614): T1 sequence (P37136 32-614)
Experimental: To determine kinetic constants of irreversible inhibition, cholinesterase from rat brain homogenates was incubated with the multifunctional compounds of the invention for designed time intervals in phosphate buffer pH 7.4.
The residual cholinesterase activity was immediately measured with the Ellman's colorimetric method after addition of 5,5′-dithiobis(2-nitrobenzoic) acid and 1 mM acetylthiocholine iodide. The inhibition kinetics were assessed according to Kitz-Wilson equation:
[formula] wherein: E represents the enzyme; I represents the intact carbamate (inhibitor); EI is the initial reversible enzyme complex; E* is the carbamylated enzyme; Ki represents the dissociation constant for EI; k+2 is the carbamylation rate constant and k+3 is the decarbamylation rate constant; kapp is the pseudo-first-order inhibition rate constant; ki, the second-order rate inhibition constant, is approximated by k+2/Ki. Under experimental condition [I]>>[E0].
According to equation (2), the logarithm of the ratio of the residual cholinesterase activity (E) and the initial cholinesterase activity (E0) is plotted against the time of incubation. The slopes of the lines representing kapp were determined by linear regression.
The slopes of the lines represent the pseudo-first-order inhibition rate constant (kapp) determined from linear regression analysis. […] The carbamylation rate constant (k+2) was obtained from the y-intercept, and the dissociation constant ([…] was obtained from the slope of the line multiplied by k+2 as described in Materials and Methods.
From these lines, the values of kapp were calculated based on Equation (2) of the Kitz-Wilson equations (see Material and Methods). […] The carbamylation rate constant k+2 is a measure of inactivation of ChE.

AChE = AChE (Homo sapiens, UniProt P22303); test: Conversion of pro-chelator by AChE into active chelator (UV-vis and MS of extract); conditions: extract from a solution of AChE titrated with metal salts
Experimental: When ZnCl2, or CuSO4 were titrated into the extract, two new bands at around 365 nm or 375 nm appeared, corresponding to the formation of […], respectively. […] This finding was reinforced by mass spectrometry analysis of the extract, which gave a value of m/z 227.22, corresponding to m/z of [M30+H]^+.
When FeCl3 or FeSO4 were titrated to an extract from a solution of AChE into which compound 23 was added, new bands at around 460 nm and 590 nm appeared exactly matching the absorption of HLA20−Fe in FIG. 2A. Titration of CuSO4 or ZnCl2 to the extract introduced new bands at around 370 nm or 360 nm, corresponding to the absorption of the complexes […], respectively.

Chain of AChE (P22303 32-614): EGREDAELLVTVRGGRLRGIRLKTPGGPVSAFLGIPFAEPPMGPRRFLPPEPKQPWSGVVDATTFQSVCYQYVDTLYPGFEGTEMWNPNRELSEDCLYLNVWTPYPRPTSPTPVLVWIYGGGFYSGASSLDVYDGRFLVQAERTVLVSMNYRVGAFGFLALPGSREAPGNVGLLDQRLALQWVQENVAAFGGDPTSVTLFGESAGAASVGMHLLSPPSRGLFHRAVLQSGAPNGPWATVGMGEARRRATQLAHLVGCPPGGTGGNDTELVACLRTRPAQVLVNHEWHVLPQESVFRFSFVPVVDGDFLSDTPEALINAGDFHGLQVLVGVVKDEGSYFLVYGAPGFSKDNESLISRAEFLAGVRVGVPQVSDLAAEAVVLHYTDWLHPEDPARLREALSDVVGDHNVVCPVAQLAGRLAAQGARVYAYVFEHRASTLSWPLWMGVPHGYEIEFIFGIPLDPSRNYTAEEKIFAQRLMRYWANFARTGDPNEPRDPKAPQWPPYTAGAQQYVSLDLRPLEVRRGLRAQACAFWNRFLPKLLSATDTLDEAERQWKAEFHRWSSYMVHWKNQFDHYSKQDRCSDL

Row | Compound | IC50 ([1]; rat brain homogenates, mean SEM, n=3 in triplicates) [µM] | kinact [2] [s⁻¹] | kinact/KI [2] [M⁻¹ s⁻¹] | potency in inhibiting ChE relative to rivastigmine ([2]; from ki) | conversion by AChE to active chelator (AChE) | IC50 [1] [µM]
1 | C#CCN(C)Cc1ccc(OC(=O)N(C)CC)c2ncccc12 [Compound 3, 5-((methyl(propargyl)amino)methyl)quinolin-8-yl ethyl(methyl)carbamate] | 9.8 | 0.0045 | 39 |  |  | 
2 | C#CCN(C)Cc1ccc(OC(=O)N2CCCC2)c2ncccc12 [Compound 5, 5-((methyl(propargyl)amino)methyl)quinolin-8-yl pyrrolidine-1-carboxylate] |  | 0.00283 | 41 | half potent |  | 
3 | C#CCN(C)Cc1ccc(OC(=O)N2CCN(Cc3ccccc3)CC2)c2ncccc12 [Compound 13, 5-((methyl(propargyl)amino)methyl)quinolin-8-yl 4-benzyl piperazine-1-carboxylate] |  | 0.00167 | 168 |  | converted by AChE back into M30 | 
4 | C#CCC1CCN(Cc2ccc(OC(=O)N(C)C)c3ncccc23)CC1 [Compound 23, 5-((4-(propargyl)piperidin-1-yl)methyl)quinolin-8-yl dimethylcarbamate] |  | 0.00233 | 242 |  | converted compound 23 back into HLA20 | 
5 | C#CCN(C)Cc1ccc(O)c2ncccc12 [M30, reference compound] |  |  |  |  |  | 114

Source: patent US8802675B2, “Neuroprotective multifunctional compounds and pharmaceutical compositions comprising them” (priority 2009, dated 2014)
